Laboratory results as given in PMC2364086, “Metabolism and growth inhibition of four retinoids in head and neck squamous normal and malignant cells” (British Journal of Cancer, 2001).

What was measured:
UM-SCC-14C = assay: Retinoid metabolism / turnover rate, HPLC; set-up: Metabolites Medium: dose or concentration left out as unconfirmed; conditions: for Metabolites Medium: UM-SCC-14C medium; for Metabolism (turnover rate) Mean: 24 h
Text: (§1) Retinoic acid is an active metabolite of retinol (ROL, vitamin A) that plays an important role in growth and differentiation of a variety of cell types (Gudas et al, 1994). […] This is a whitish and reddish plaque in the epithe- lial lining in the oral cavity that have a relatively high risk to become malignant. […] One impor- tant route of ATRA metabolism consists of hydroxylation at posi- tion 4 of the cyclohexenyl ring to form 4-hydroxy-RA, which is readily oxidized to 4-oxo-RA. Other metabolic pathways of ATRA include isomerization, decarboxylation and glucuronidation processes (Rockley et al, 1980; Roberts et al, 1980; Sass et al, 1994). In vitro, 4-hydroxylation of ATRA is mediated by a cytochrome P450 (CYP)-dependent mono-oxogenase system that requires NAPDH and oxygen (Roberts et al, 1980). The present study was undertaken to investigate to what extent a panel of retinoids, including 13cRA, is able to inhibit growth of HNSCC cells and cultures of normal oral keratinocytes (OKC). […] After binding of retinoids to retinoic acid receptors (RARs and RXRs) dimers are formed that are able to regulate the expression of genes involved in growth and differentiation. We compared the metabolism and level of growth inhibition of 13cRA with that of ATRA, 9cRA and retinol in four HNSCC cell lines and normal oral keratinocyte cultures (OKC).

[1] = tested on: normal oral keratinocyte cultures (OKC); assay: Retinoid metabolism / turnover rate, HPLC; set-up: Metabolites Medium: dose or concentration left out as unconfirmed
Text: as §1

UM-SCC-22A = assay: Retinoid metabolism / turnover rate, HPLC; set-up: Metabolites Medium: dose or concentration left out as unconfirmed; conditions: for Metabolites Medium: UM-SCC-22A medium; for Metabolism (turnover rate) Mean: 24 h
Text: as §1

UM-SCC-35R = assay: Retinoid metabolism / turnover rate, HPLC; set-up: Metabolites Medium: dose or concentration left out as unconfirmed; conditions: for Metabolism (turnover rate) Mean: 24 h
Text: as §1

CYP26 = tested on: CYP26; set-up: method as in Sonneveld et al, 1998; conditions: ref Sonneveld et al, 1998; cited from earlier work
UM-SCC-35 = assay: Retinoid metabolism / turnover rate, HPLC; conditions: for Metabolites Pellet: UM-SCC-35 cell pellet
Text: as §1

oral leukoplakia = conditions: ref Koch, 1978; cited from earlier work
[2] = OKC, exposed, decrease in medium and cells between 4 and 24 h
[3] = 72 h exposure, 1 mM retinoid, HPLC

| SMILES | Metabolites Medium (UM-SCC-14C; 72 h exposure, HPLC) | Metabolism (turnover rate) Mean [1, 2] | Metabolites Medium (UM-SCC-22A; 72 h exposure, HPLC) | Metabolism by CYP26 (CYP26) | Metabolites Pellet (UM-SCC-35; [3]) | Isomerization to other RA isomers (UM-SCC-14C; human, 1 µM) | Metabolism (turnover rate) Mean (UM-SCC-14C; human, 1 µM) | Isomerization to other RA isomers ([1]; human, 1 µM) | Metabolism (turnover rate) Mean ([1]; human, 24 h, 1 µM) | Isomerization to other RA isomers (UM-SCC-22A; human, 1 µM) | Metabolism (turnover rate) Mean (UM-SCC-22A; human, 1 µM) | Metabolism (turnover rate) Mean (UM-SCC-35R; human, 1 µM) | Metabolism (turnover rate) Mean (UM-SCC-35; human, 24 h, 1 µM) | other results |
| --- | --- | --- | --- | --- | --- | --- | --- | --- | --- | --- | --- | --- | --- | --- |
| CC1=C(/C=C/C(C)=C\C=C\C(C)=C\C(=O)O)C(C)(C)CCC1 [9cRA, 9-cis-RA] | a,b | 12.0 pmol per mg protein per hour | a,b | can not metabolize | b (between 10 and 15 min) |  |  |  |  |  |  |  |  | Isomerization to other RA isomers (UM-SCC-14C; UM-SCC-14C, ATRA to 13cRA, 13cRA to ATRA, 9cRA to ATRA and 13cRA): up to 5%; Isomerization to other RA isomers ([1]; OKC, ATRA to 13cRA, 13cRA to ATRA, 9cRA to ATRA and 13cRA): up to 5%; Isomerization to other RA isomers (UM-SCC-22A; UM-SCC-22A, ATRA to 13cRA, 13cRA to ATRA, 9cRA to ATRA and 13cRA): up to 5%; Metabolites Pellet (UM-SCC-35R; UM-SCC-35R cell pellet, 72 h exposure, HPLC): b (between 10 and 15 min); Metabolites Medium (UM-SCC-35R; UM-SCC-35R medium, 72 h exposure, HPLC): a,b; Metabolites Medium (UM-SCC-35; UM-SCC-35 medium, 72 h exposure, 1 mM retinoid, HPLC): a,b,c |
| CC1=C(/C=C/C(C)=C/C=C/C(C)=C\C(=O)O)C(C)(C)CCC1 [13cRA, 13-cis-retinoic acid] |  |  |  | can not metabolize |  | up to 10% | 78.7 pmol per mg protein per hour | up to 10% | 38.8 pmol per mg protein per hour | up to 10% | 154.1 pmol per mg protein per hour | 6.9 pmol per mg protein per hour | 949.5 pmol per mg protein per hour | Metabolites Pellet (UM-SCC-14C; human, 72 h, 1 µM): d2; Metabolites Pellet ([1]; human, 72 h, 1 µM): d2; Metabolites Pellet (UM-SCC-22A; human, 72 h, 1 µM): d2; Metabolites Pellet (UM-SCC-35R; human, 72 h, 1 µM): b,d2 |
| CC1=C(/C=C/C(C)=C/C=C/C(C)=C/C(=O)O)C(C)(C)CCC1 [ATRA, all-trans-retinoic acid] |  |  |  | highly substrate (ATRA) specific |  | up to 10% | 13.3 pmol per mg protein per hour | up to 10% | 14.8 pmol per mg protein per hour | up to 10% | 104.8 pmol per mg protein per hour | 52.7 pmol per mg protein per hour | 1,016.0 pmol per mg protein per hour | Proportion of leukoplakia patients in whom active (oral leukoplakia): 59%; Major metabolite (UM-SCC-35; human, 24 h, 1 µM): 4-OH-RA |
| CC1=C(/C=C/C(C)=C/C=C/C(C)=C/CO)C(C)(C)CCC1 [ROL, retinol] | d1 | 98.7 pmol per mg protein per hour | d1 |  | c1 |  |  |  |  |  |  |  |  | Formation of ATRA after exposure (UM-SCC-14C; UM-SCC-14C): relatively high formation of ATRA; Metabolites Pellet (UM-SCC-14C; UM-SCC-14C cell pellet, 72 h exposure, HPLC): d1; Metabolites Pellet ([1]; OKC cell pellet, 72 h exposure, HPLC): d1; Metabolites Medium ([1]; OKC medium, 72 h exposure, HPLC): d1; Metabolites Pellet (UM-SCC-22A; UM-SCC-22A cell pellet, 72 h exposure, HPLC): d1; Formation of other retinoids after exposure (UM-SCC-35R; UM-SCC-35R): no or very small amounts of other retinoids; Formation of other retinoids after exposure (UM-SCC-35; UM-SCC-35): no or very small amounts of other retinoids |
